What was measured:
[1] = sensitometry: change in speed and practical density point versus control; conditions: Table I; for Delta Log Speed: 0.5 mmol/Ag mol isothiourea, change versus control without isothiourea; for Delta PDP (practical density point): 0.5 mmol/Ag mol, density at 0.4 log E past speed point, Test PDP - Control PDP
Method: (§1) Each coating used in obtaining the data provided in these examples was prepared on a polyester support, using a monodispersed 0.23 micrometer cubic, rhodium-doped, sulfur plus gold sensitized AgClBr(70/30) emulsion at 3.24 g/m^2 Ag, 2.35 g gel/m^2 and 1.00 g latex/m^2, where the latex is a copolymer of methyl acrylate, 2-acrylamido-2-methylpropane sulfonic acid and 2-acetoacetoxyethylmethacrylate. Sulfur and gold sensitization was provided by addition of 1.5 mg/Ag mole of 1,3-dicarboxymethyl-1,3-dimethyl-2-thiourea and 1.1 mg/Ag mole of potassium tetrachloroaurate. The silver halide emulsion also contained, in amounts of 50, 400, and 200 mg/Ag mole, respectively, the antifoggants 1-(3-acetamidophenyl)-5-mercaptotetrazole, 5-carboxy-4-hydroxy-6-methyl-2-methyl-mercapto1,3,3a,7-tetra-azaindene and 5-bromo-4-hydroxy-6-methyl-1,3,3a,7-tetraazaindene. The emulsion was spectr sensitized at 208 mg/Ag mol with a sensitizing dye of the formula: [drawing 17] and the emulsion layer was overcoated with gelatin containing polymethylmethacrylate beads. The nucleating agent was added as a methanol solution to the emulsion melts at a level of 0.2 millimoles (mM) per mole of silver. The compound employed as the nucleating agent is represented by the formula: [drawing 18]
(§2) An "incorporated booster" was added as a methanol solution in an amount of 2 g/Ag mol. The compound employed as the "incorporated booster" is represented by the formula: [drawing 19] where Pr represents n-propyl
(§3) Ballasted thioether isothioureas I to VII were incorporated n the emulsion at 0.5 mmol/Ag mol as methanol solutions. Coatings were exposed through a 0.1 Log E step tablet for five seconds to a 3000° K. tungsten light source and processed for 30 seconds at 30° C. in the developer solution. Processing was carried out in a KODAK KODAMATIC Model 42S processor.
(§4) The concentrate was diluted at a ratio of one part of concentrate to three parts of water to produce a working strength developing solution with a pH of 10.5.
(§5) An electronic image analyzer was used to scan processed unexposed samples and count the number of pepper fog spots (>10 micrometer diameter) contained in an area of 600 square millimeters. Standard sensitometry exposures were processed and analyzed to monitor speed and shoulder density effects.
(§6) Sensitometry parameters are expressed in Table I in terms of the change produced by incorporation of the ballasted thioether isothiourea versus the control which contained no isothiourea compound and was processed under identical conditions. Values are reported for speed, practical density point (PDP, a measure of shoulder development) and pepper fog (PF). Therefore, the changes in speed, practical density point and pepper fog produced by the ballasted thioether isothiourea are directly recorded in the table. By definition, the delta log speed, delta PDP and delta log PF for the control are zero.
(§7) In each of examples 1 to 7, the ballasted thioether isothiourea was employed in the form of the hydrochloride salt. Comparative test A utilized the hydrobromide salt of isothiourea compound "A" of the formula: [drawing 20] Comparative test B utilized the hydrobromide salt of isothiourea compound "B" of the formula: [drawing 21] Both compounds A and B were utilized at a concentration of 0.5 mmol/Ag mol.

[2] = pepper fog spot count by electronic image analyzer, change versus control; conditions: for Delta Log PF (pepper fog): Table I, 0.5 mmol/Ag mol, spots >10 micrometer diameter in 600 square millimeters, -0.3 = two times reduction; for reduction in pepper fog (in words): from Table I, versus control
Method: as §1, §2, §3, §4, §5, §6, §7

[3] = image spread: halftone dot growth rate during development; conditions: for Dot Growth Rate: Table II, 0.5 mmol/Ag mol, control 0.63 microns/sec; for reduction of dot growth rate (in words): from Table II, versus control, silver chlorobromide emulsion
Method: as §1, §2, §3
Each of the coatings was also analyzed for the effect upon image spread of the incorporation of the isothiourea compound.
Image spread measurements were performed by following the growth in diameter of halftone dots with development time. The films were contact exposed to a 52 line/cm 90% tint to produce a 10% exposed dot pattern. The films were then developed in a device that measures the infrared (IR) density during development. The integrated IR halftone density of the developing tint pattern was converted to the equivalent dot diameter using the relation between integrated density and percent dot area. The resulting plots of increasing dot diameter with development time were linear (constant dot growth rate) during the first 60 to 90 seconds of development.

Row | SMILES | Delta Log Speed [1] | Delta PDP (practical density point) [1] | Delta Log PF (pepper fog) [2] | Dot Growth Rate [3] [microns/sec] | reduction in pepper fog (in words) [2] | reduction of dot growth rate (in words) [3]
1 | CCCCSCCSC(=N)N [V] | -0.01 | -0.38 | -0.33 | 0.57 |  | 
2 | CCCCCCCCCCCCSC(=N)N [B, reference compound] | -0.02 | -0.34 | -0.07 | 0.62 | also reduced pepper fog, but to a much lesser extent | ineffective in reducing dot growth rate
3 | CCCCCCCCSC(=N)N [Compound A, reference compound] | -0.02 | -0.22 | -0.12 | 0.62 | also reduced pepper fog, but to a much lesser extent | ineffective in reducing dot growth rate
4 | N=C(N)SCCSc1ccccc1 [VI] | -0.01 | -0.19 | -0.48 | 0.60 |  | 
5 | CCCCCCCCCCSCCCSC(=N)N [IV] | -0.01 | -0.39 | -0.43 | 0.58 |  | 
6 | CCCCCCSCCCSC(=N)N [III] | -0.02 | -0.36 | -0.58 | 0.54 |  | 
7 | CCCCCCSCCSC(=N)N [I] | -0.01 | -0.06 | -0.14 | 0.55 |  | 
8 | CCCCCCCCCCSCCSC(=N)N [II] | -0.03 | -0.14 | -0.46 | 0.58 |  | 
9 | N=C(N)SCCSCc1ccccc1 [VII] | -0.03 | -0.42 | -0.86 | 0.54 | reducing pepper fog by a factor of almost ten times | 
